We go through 12 molecules from patent US20230265116A1, “DEGRADATION OF (EGFR) BY CONJUGATION OF EGFR INHIBITORS WITH E3 LIGASE LIGAND AND METHODS OF USE” (BEIGENE, LTD., priority 2020, published 2023).

Assay [1] concerns the target T1, EGFR L858R/T790M/C797S (BaF3-LTC cells) (Homo sapiens, UniProt P00533, C797S/L858R/T790M).
T1 construct: expressed in transfected cells; host or cells: BaF3
Briefly: EGFR degradation HTRF assay, BaF3-LTC cells. Type of assay: cell-based. In short, it runs like this:
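Cells treated 16 h at 37 °C, 5% CO2 in medium with 0.2% DMSO; top final concentration 10 uM, 5-fold dilution, 8 doses. Lysates read by HTRF (665/620 nm); degradation % versus DMSO high control, DC50 from four-parameter fit, Dmax as maximal degradation.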

Assay [2] relates to EGFR Del19/T790M/C797S (H1975-clone #28). Nature of the assay: EGFR degradation HTRF assay, H1975-clone #28 DTC cells. Type of assay: cell-based. In short, it runs like this:
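H1975 clones stably overexpressing mutant EGFR, with endogenous EGFR knocked out by sgRNA and homozygosity confirmed by sequencing, were treated 16h at 37° C. with compounds in 0.2% DMSO (top final 10 uM, 5-fold, 8 doses). Lysates were read by HTRF (665/620 nm); DC50 and Dmax came from fitting % degradation versus DMSO control.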

[3] abbreviates: read-out: DC50(nM) BaF3-LTC; BaF3-LTC cells; EGFR degradation, IC50 (DC50) from curve fit.
Where [4] appears, read: read-out: Dmax (%) BaF3-LTC, BaF3-LTC cells; maximum percentage of inhibition (degradation).
The mark [5] stands for this setting: H1975 # 28 DTC cells; maximum percentage of inhibition (degradation).
[6] abbreviates: read-out: DC50(nM) H1975 # 28 DTC; H1975 # 28 DTC cells; EGFR degradation, IC50 (DC50) from curve fit.
The mark [7] stands for this setting: BaF3-LTC cells; EGFR degradation, IC50 (DC50) from curve fit; read-out: DC50(nM) BaF3-LTC.
Setting [8] is: BaF3-LTC cells; maximum percentage of inhibition (degradation); read-out: Dmax (%) BaF3-LTC.
[9] abbreviates: H1975 # 28 DTC cells; EGFR degradation, IC50 (DC50) from curve fit; read-out: DC50(nM) H1975 # 28 DTC.

Where two headings read alike, the source gives them in different places.

T1 sequence (P00533 25-1210 T790M/C797S/L858R): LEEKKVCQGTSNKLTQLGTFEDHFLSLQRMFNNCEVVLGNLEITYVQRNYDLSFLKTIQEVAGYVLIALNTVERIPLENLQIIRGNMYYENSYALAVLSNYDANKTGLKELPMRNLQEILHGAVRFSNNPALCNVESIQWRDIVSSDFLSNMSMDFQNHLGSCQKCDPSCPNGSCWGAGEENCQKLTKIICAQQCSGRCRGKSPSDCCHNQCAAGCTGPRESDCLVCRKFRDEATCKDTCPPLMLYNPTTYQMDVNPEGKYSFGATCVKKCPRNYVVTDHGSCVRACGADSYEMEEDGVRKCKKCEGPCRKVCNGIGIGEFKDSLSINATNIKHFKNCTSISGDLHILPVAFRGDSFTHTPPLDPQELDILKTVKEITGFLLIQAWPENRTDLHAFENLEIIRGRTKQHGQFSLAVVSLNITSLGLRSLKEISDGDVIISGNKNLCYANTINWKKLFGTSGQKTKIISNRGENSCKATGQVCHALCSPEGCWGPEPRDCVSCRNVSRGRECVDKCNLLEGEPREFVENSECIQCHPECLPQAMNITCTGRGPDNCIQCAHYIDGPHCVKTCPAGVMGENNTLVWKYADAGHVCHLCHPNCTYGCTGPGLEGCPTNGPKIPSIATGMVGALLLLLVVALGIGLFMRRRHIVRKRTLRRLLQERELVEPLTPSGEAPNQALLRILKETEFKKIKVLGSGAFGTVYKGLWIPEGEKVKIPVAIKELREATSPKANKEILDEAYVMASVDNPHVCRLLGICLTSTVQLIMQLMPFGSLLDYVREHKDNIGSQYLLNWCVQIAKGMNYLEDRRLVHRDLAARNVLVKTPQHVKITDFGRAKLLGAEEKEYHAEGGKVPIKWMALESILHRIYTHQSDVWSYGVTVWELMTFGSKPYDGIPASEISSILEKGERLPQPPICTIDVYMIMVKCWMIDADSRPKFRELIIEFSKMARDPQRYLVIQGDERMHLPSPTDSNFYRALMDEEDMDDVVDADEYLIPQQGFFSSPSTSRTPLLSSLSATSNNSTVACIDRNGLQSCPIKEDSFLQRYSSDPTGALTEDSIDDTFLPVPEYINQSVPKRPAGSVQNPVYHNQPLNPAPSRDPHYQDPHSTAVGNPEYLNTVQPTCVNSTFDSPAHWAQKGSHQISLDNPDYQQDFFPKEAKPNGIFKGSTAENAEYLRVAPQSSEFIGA

`CCOc1cc(N2CCC(N3CCN(C(=O)[C@H]4CN(c5cc(F)cc6c5oc(=O)n6C5CCC(=O)NC5=O)CC4(C)C)CC3)CC2)c(CC)cc1Nc1ncc(Br)c(Nc2ccc3nc(CC)ccc3c2P(C)(C)=O)n1` (stereo partly drawn) [Example 480, 3-(7-((R)-4-(4-(1-(4-((5-bromo-4-((5-(dimethylphosphoryl)-2-ethylquinolin-6-yl)amino)pyrimidin-2-yl)amino)-5-ethoxy-2-ethylphenyl)piperidin-4-yl)piperazine-1-carbonyl)-3,3-dimethylpyrrolidin-1-yl)-5-fluoro-2-oxobenzo[d]oxazol-3(2H)-yl)piperidine-2,6-dione]: the 50% degradation concentration (DC50) came out at 18.9 nM in assay [1] (setting [3]) and 7.82 nM in assay [2] (setting [6]). Besides, the Dmax in assay [1] (setting [4]) is 89.4%. In addition, the “Dmax (%) H1975 # 28 DTC” value in assay [2] (setting [5]) came out at 69.54%.

With `CCc1ccc2c(P(C)(C)=O)c(Nc3nc(Nc4cc(CC)c(N5CCC(N6CCN(CC7CN(c8cc(F)c(C9CCC(=O)NC9=O)c(F)c8)C7)CC6)CC5)cc4OC)ncc3Br)ccc2n1` (stereo not drawn) [Example 508, 3-(4-(3-((4-(1-(4-((5-bromo-4-((5-(dimethylphosphoryl)-2-ethylquinolin-6-yl)amino)pyrimidin-2-yl)amino)-2-ethyl-5-methoxyphenyl)piperidin-4-yl)piperazin-1-yl)methyl)azetidin-1-yl)-2,6-difluorophenyl)piperidine-2,6-dione], the DC50 in assay [1] (setting [7]) turned out to be 14.7 nM; in assay [2] (setting [9]), 1 nM. The Dmax in assay [1] (setting [8]) was found to be 89.3%. Moreover, the “Dmax (%) H1975 # 28 DTC” value in assay [2] (setting [5]) is on record as 72.7%.

`CCc1cc(Nc2ncc(Br)c(Nc3cc(F)c4nc(C)ccc4c3P(C)(C)=O)n2)c(OC)cc1N1CCC(N2CCN(CCc3cc(F)c([C@H]4CCC(=O)NC4=O)c(F)c3)CC2)CC1` [Example 510, (R)-3-(4-(2-(4-(1-(4-((5-bromo-4-((5-(dimethylphosphoryl)-8-fluoro-2-methylquinolin-6-yl)amino)pyrimidin-2-yl)amino)-2-ethyl-5-methoxyphenyl)piperidin-4-yl)piperazin-1-yl)ethyl)-2,6-difluorophenyl)piperidine-2,6-dione]: the DC50 in assay [1] (setting [7]) was found to be 3.89 nM; in assay [2] (setting [9]), 0.763 nM. The Dmax in assay [1] (setting [8]) came out at 93.1%. Besides, the “Dmax (%) H1975 # 28 DTC” value in assay [2] (setting [5]) was 67.2%.

With `CCc1cc(Nc2ncc(Br)c(Nc3cc(F)c4nc(C)ccc4c3P(C)(C)=O)n2)c(OC)cc1N1CCC(N2CCN(C(=O)C3CCN(c4cc(F)c(C5CCC(=O)NC5=O)c(F)c4)CC3)CC2)CC1` (stereo not drawn) [Example 512, 3-(4-(4-(4-(1-(4-((5-bromo-4-((5-(dimethylphosphoryl)-8-fluoro-2-methylquinolin-6-yl)amino)pyrimidin-2-yl)amino)-2-ethyl-5-methoxyphenyl)piperidin-4-yl)piperazine-1-carbonyl)piperidin-1-yl)-2,6-difluorophenyl)piperidine-2,6-dione], the values for the DC50 in assay [1] (setting [7]) and in assay [2] (setting [9]) were 6.46 nM and 2.36 nM, respectively. Moreover, the greatest degradation seen (Dmax) in assay [1] (setting [8]) was 92%. Further, in assay [2] (setting [5]), the “Dmax (%) H1975 # 28 DTC” value came out at 60.54%.

As to `COc1cc(N2CCC(N3CCN(C(=O)[C@H]4CCN(c5cc(F)c(C6CCC(=O)NC6=O)c(F)c5)C4)CC3)CC2)c(C)cc1Nc1ncc(Br)c(Nc2ccc3c(=O)n(C)ncc3c2P(C)(C)=O)n1` (stereo partly drawn) [Example 513, 3-(4-((S)-3-(4-(1-(4-((5-bromo-4-((5-(dimethylphosphoryl)-2-methyl-1-oxo-1,2-dihydrophthalazin-6-yl)amino)pyrimidin-2-yl)amino)-5-methoxy-2-methylphenyl)piperidin-4-yl)piperazine-1-carbonyl)pyrrolidin-1-yl)-2,6-difluorophenyl)piperidine-2,6-dione], the DC50 in assay [1] (setting [7]) was determined as 10.2 nM; in assay [2] (setting [9]) it was 1.37 nM. The Dmax in assay [1] (setting [8]) came out at 85.2%. In assay [2] (setting [5]), the “Dmax (%) H1975 # 28 DTC” value is on record as 78.24%.

Take `CCc1ccc2c(P(C)(C)=O)c(Nc3nc(Nc4cc(CC)c(N5CCC(N6CCN(C(=O)[C@@H]7CCN(c8cc(F)c(C9CCC(=O)NC9=O)c(F)c8)C7)CC6)CC5)cc4OC)ncc3Br)ccc2n1` (stereo partly drawn) [Example 515, 3-(4-((R)-3-(4-(1-(4-((5-bromo-4-((5-(dimethylphosphoryl)-2-ethylquinolin-6-yl)amino)pyrimidin-2-yl)amino)-2-ethyl-5-methoxyphenyl)piperidin-4-yl)piperazine-1-carbonyl)pyrrolidin-1-yl)-2,6-difluorophenyl)piperidine-2,6-dione]: the half-maximal degradation concentration (DC50) worked out at 19.7 nM in assay [1] (setting [7]) and 3.22 nM in assay [2] (setting [9]). Moreover, in assay [1] (setting [8]), the maximal degradation (Dmax) is 90.4%. For the same molecule, the “Dmax (%) H1975 # 28 DTC” value in assay [2] (setting [5]) was 66.35%.

Regarding `CCc1cc(Nc2ncc(Br)c(Nc3ccc4nc(C)ccc4c3P(C)(C)=O)n2)c(OC)cc1N1CCC(N2CCN(C(=O)C3CCN(c4cc(F)c(C5CCC(=O)NC5=O)c(F)c4)CC3)CC2)CC1` (stereo not drawn) [Example 517, 3-(4-(4-(4-(1-(4-((5-bromo-4-((5-(dimethylphosphoryl)-2-methylquinolin-6-yl)amino)pyrimidin-2-yl)amino)-2-ethyl-5-methoxyphenyl)piperidin-4-yl)piperazine-1-carbonyl)piperidin-1-yl)-2,6-difluorophenyl)piperidine-2,6-dione], the DC50 in assay [1] (setting [7]) stood at 7 nM; in assay [2] (setting [9]), 0.968 nM. The Dmax in assay [1] (setting [8]) stood at 91.3%. In addition, in assay [2] (setting [5]), the “Dmax (%) H1975 # 28 DTC” value is 58.8%.

For `CCc1cc(Nc2ncc(Br)c(Nc3ccc4nc(C)ccc4c3P(C)(C)=O)n2)c(OC)cc1N1CCC(N2CCN(C(=O)C3CN(c4cccc5c4oc(=O)n5C4CCC(=O)NC4=O)C3)CC2)CC1` (stereo not drawn) [Example 519, 3-(7-(3-(4-(1-(4-((5-bromo-4-((5-(dimethylphosphoryl)-2-methylquinolin-6-yl)amino)pyrimidin-2-yl)amino)-2-ethyl-5-methoxyphenyl)piperidin-4-yl)piperazine-1-carbonyl)azetidin-1-yl)-2-oxobenzo[d]oxazol-3(2H)-yl)piperidine-2,6-dione], the 50% degradation concentration (DC50) in assay [1] (setting [3]) came to 1.19 nM; in assay [2] (setting [6]), 0.378 nM. Also, in assay [1] (setting [4]), the Dmax was 92.1%. The “Dmax (%) H1975 # 28 DTC” value in assay [2] (setting [5]) is 74.38%.

Take `CCc1cc(Nc2ncc(Br)c(Nc3ccc4c(=O)n(C)ncc4c3P(C)(C)=O)n2)c(OC)cc1N1CCC(N2CCN(C(=O)C3CN(c4cc(F)c(C5CCC(=O)NC5=O)c(F)c4)C3)CC2)CC1` (stereo not drawn) [Example 520, 3-(4-(3-(4-(1-(4-((5-bromo-4-((5-(dimethylphosphoryl)-2-methyl-1-oxo-1,2-dihydrophthalazin-6-yl)amino)pyrimidin-2-yl)amino)-2-ethyl-5-methoxyphenyl)piperidin-4-yl)piperazine-1-carbonyl)azetidin-1-yl)-2,6-difluorophenyl)piperidine-2,6-dione]: the DC50 in assay [1] (setting [7]) was 5.66 nM; in assay [2] (setting [9]) it was 0.769 nM. Moreover, the greatest degradation seen (Dmax) in assay [1] (setting [8]) stood at 90.1%. Moreover, in assay [2] (setting [5]), the “Dmax (%) H1975 # 28 DTC” value was found to be 73.99%.

As for `CCc1cc(Nc2ncc(Br)c(Nc3ccc4c(=O)n(C5CC5)ncc4c3P(C)(C)=O)n2)c(OC)cc1N1CCC(N2CCN(CCc3ccc4c(c3)oc(=O)n4C3CCC(=O)NC3=O)CC2)CC1` (stereo not drawn) [Example 522, 3-(6-(2-(4-(1-(4-((5-bromo-4-((2-cyclopropyl-5-(dimethylphosphoryl)-1-oxo-1,2-dihydrophthalazin-6-yl)amino)pyrimidin-2-yl)amino)-2-ethyl-5-methoxyphenyl)piperidin-4-yl)piperazin-1-yl)ethyl)-2-oxobenzo[d]oxazol-3(2H)-yl)piperidine-2,6-dione], the half-maximal degradation concentration (DC50) amounted to 1.43 nM in assay [1] (setting [7]) and 0.611 nM in assay [2] (setting [9]). The greatest degradation seen (Dmax) in assay [1] (setting [8]) came to 95.3%. For the same molecule, in assay [2] (setting [5]), the “Dmax (%) H1975 # 28 DTC” value was 75.25%.

In the case of `CCc1cc(Nc2ncc(Br)c(Nc3ccc4c(=O)n(C)ncc4c3P(C)(C)=O)n2)c(OC)cc1N1CCC(N2CCN(CCc3ccc4c(c3)oc(=O)n4C3CCC(=O)NC3=O)CC2)CC1` (stereo not drawn) [Example 523, 3-(6-(2-(4-(1-(4-((5-bromo-4-((5-(dimethylphosphoryl)-2-methyl-1-oxo-1,2-dihydrophthalazin-6-yl)amino)pyrimidin-2-yl)amino)-2-ethyl-5-methoxyphenyl)piperidin-4-yl)piperazin-1-yl)ethyl)-2-oxobenzo[d]oxazol-3(2H)-yl)piperidine-2,6-dione], the DC50 in assay [1] (setting [7]) worked out at 1.97 nM; in assay [2] (setting [9]), 0.571 nM. The Dmax in assay [1] (setting [8]) is 95.9%. The “Dmax (%) H1975 # 28 DTC” value in assay [2] (setting [5]) is recorded as 72.16%.

Take `CCc1cc(Nc2ncc(Br)c(Nc3ccc4nc(C)ccc4c3P(C)(C)=O)n2)c(OC)cc1N1CCC(N2CCN(C[C@H]3CCN(c4ccc5c(c4)oc(=O)n5C4CCC(=O)NC4=O)C3)CC2)CC1` (stereo partly drawn) [Example 525, 3-(6-((R)-3-((4-(1-(4-((5-bromo-4-((5-(dimethylphosphoryl)-2-methylquinolin-6-yl)amino)pyrimidin-2-yl)amino)-2-ethyl-5-methoxyphenyl)piperidin-4-yl)piperazin-1-yl)methyl)pyrrolidin-1-yl)-2-oxobenzo[d]oxazol-3(2H)-yl)piperidine-2,6-dione]: the values for the DC50 in assay [1] (setting [7]) and in assay [2] (setting [9]) were 2.6 nM and 0.691 nM, respectively. Moreover, the greatest degradation seen (Dmax) in assay [1] (setting [8]) was found to be 94.3%. Moreover, the “Dmax (%) H1975 # 28 DTC” value in assay [2] (setting [5]) is reported as 50.86%.
